The record followed here is patent publication US20240246960A1 (adMare Therapeutics Society, priority 2021, published 2024).

SMILES strings stand for the structures. Like-named read-outs stand apart in the source and are kept apart here.

One assay concerns the target T1, DNA-PK (Homo sapiens, UniProt P78527).
T1 construct: purchased Invitrogen PR9107A
As to the kind of experiment: DNA-PK Assay for Biochemical Enzymatic Inhibition (ADP Glo Kinase assay). How it is done:
A biochemical assay was performed to identify IC50 values against DNA-PK activity in a two-step reaction with a kinase reaction followed by ADP Glo™ Kinase assay Kit (Promega V9102).
Three-fold serial dilutions of compounds in DMSO were prepared in kinase assay buffer (50 mM HEPES pH 7.5, 20 mM MgCl2, 100 mM KCl, 50 μM DTT, 10 μg/ml calf thymus DNA, 0.01% Tween 20). Kinase assay buffer was used to prepare compound treatments to 0.02% DMSO (dimethyl sulphoxide) content. DMSO controls were prepared to produce a maximum and minimum luminescence signal for normalization. Substrate (Anaspec, AS-60210-5) and ATP (Promega V9102) and ATP mix was prepared by dilution in kinase assay buffer for 434.4 μM and 64.4 μM final assay concentrations, respectively. Compounds and control were added to 25 ng DNA-PK enzyme (Invitrogen, PR9107A) diluted in kinase buffer in assay plate (Corning 267459) and incubated for 15 minutes at room temperature prior to addition of substrate and ATP mix.
Throughout the assay, each time a reagent was added to the microplate, it was centrifuged for 1 minute at 1300 rcf. All reagents were added, and incubations carried out at room temperature. The reaction was then incubated for 60 minutes. ADP-ATP standards at 0, 4, 10, 40, 80, and 100% ADP (prepared as specified in the ADP Glo™ Kinase assay kit) were also added to the microplate at a volume equal to the total kinase reaction. The ADP Glo™ Kinase Assay kit was then used to quantify DNA-PK activity: following the 60-minute incubation, a 1:1 volume of ADP Glo reagent was added to all wells, then following a further 45-minute incubation, a 1:1 volume of Kinase Detection Reagent was added to all wells. After this two-step assay, plates were incubated in a Synergy-Neo2 plate reader for 30 minutes with gentle shaking, followed by endpoint luminescent read Luminescence data was normalized by subtracting the background signal and expressing all background-adjusted values as a percentage of the average maximum signal. The data was then expressed as percent inhibition by subtracting from 100% (i.e. maximum luminescent signal will be 0% inhibition) and the resulting data plotted against ten concentration points on a logarithmic scale, using GraphPad Prism. Non-linear regression analysis was performed on each concentration response curve and the log [inhibitor] vs response—variable slope (four parameters) equation was selected to generate IC50 values.
In general terms: ADP-Glo first removes unused ATP, then detects ADP through luciferase.

Assay [1] has as its target T2, DNA-PK phosphorylation at Serine 2056 (Homo sapiens, UniProt P78527).
T2 construct: host or cells: FaDu
As to the kind of experiment: Cellular Assay for Inhibition of DNA-PK Phosphorylation at Serine 2056 (FaDu cells, neocarzinostatin, sandwich ELISA). The class given is cell-based. In short, it runs like this:
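FaDu cells were pretreated with compound (0.3% DMSO) for 1 h, then exposed to neocarzinostatin at 1 μg/mL final for 2 h to induce DSBs. Protein-normalized lysates were assayed by MSD sandwich ELISA for total and pSer2056 DNA-PK. IC50 came from variable-slope fits of % inhibition relative to DMSO and NCS controls.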
A general note: An ELISA detects its analyte on a solid surface through an enzyme-linked reagent.

In assay [2] the target is T3, pDNA-PK ser2056 induction in HCT116 spheroids (Homo sapiens, UniProt P78527).
T3 construct: endogenous in cells; host or cells: HCT116 multicellular tumour spheroids
As to the kind of experiment: Multicellular tumour spheroid + radiation, pDNA-PK inhibition, HCT116. The class given is cell-based. The settings on record: 20 Gy. The procedure: Multicellular tumour spheroids determination of compound inhibition of pDNA-PK induction following radiation. Tumour spheroids were grown to approximately 0.5 mm in diameter and irradiated with 20 Gy in combination with inhibitor test compounds to determine their potency. Inhibitor concentration for 50% reduction in pDNA-PK induction (IC50) was determined via immunohistochemical staining in spheroid cryosections taken 2 hours following radiation.
Spheroid, Cell Line: […], Immunohistochemical endpoint, pDNA-PK inhibition, EC50 in μm.
Spheroid+radiation pDNA-PK. Radiation: 20 Gy. Drug: serial dilution 5 or 10 μM down to 3.5 nM (11 wells). Spheroids: 3-6 spheroids per well (300-500 μm diameter). 20% O2 and 5% CO2. 96 well plate format.
Protocol: pre-incubate 1 hours with drug, irradiate with 20 Gy, post-incubate 2 hours with drug, freeze and cryosection ×3 replicates.
Endpoint: fluorescent immunostin pDNA-PK ser2056 and image on microscope.
Analysis: determine EC50 concentration that decreases pDNA-PK induction by 50% after radiation.
Multicellular tumour spheroids determination of compound inhibition of pDNA-PK induction following radiation. Tumour spheroids were grown to approximately 0.5 mm in diameter and irradiated with 20 Gy in combination with inhibitor test compounds to determine their potency. Inhibitor concentration for 50% reduction in pDNA-PK induction (IC50) was determined via immunohistochemical staining in spheroid cryosections taken 2 hours following radiation. For cell survival endpoint 8 Gy radiation was used and 3 hours following radiation spheroids were dissociated, counted and plated for colony forming endpoint.
Spheroid+radiation pDNA-PK. Radiation: 20 Gy. Drug: serial dilution 5 or 10 μM down to 3.5 nM (11 wells). Spheroids: 3-6 spheroids per well (300-500 μm diameter). 20% O2 and 5% CO2. 96 well plate format. Endpoint: fluorescent immunostain pDNA-PK ser2056 and image on microscope. Analysis: determine EC50 concentrations that decreases pDNA-PK induction […] after irradiation.
Multicellular tumour spheroids were used to determine potency of test compounds in a 3D tissue environment using inhibition of pDNA-PK induction following radiation or cell survival as the endpoint. For the pDNA-PK endpoint HCT116 or FaDU tumour spheroids were grown to approximately 0.5 mm in diameter and irradiated with 20 Gy in combination with inhibitor test compounds to determine their potency. Experiments were carried out in 96 well plates containing 0.7 mls of MEM media containing 10% FBS and 10 mM glucose under 20% O2 & 5% CO2 at 37° C. Following dilution of compounds 1:1000 from DMSO stocks, compounds were serially diluted from 10 μM down to 3.5 nM and 5-10 spheroids added. 96 well plates were constantly stirred to avoid spheroids settling during the course of the experiment. The inhibitor concentration for 50% reduction in pDNA-PK induction (EC50) was determined via immunohistochemical staining in spheroid cryosections taken 2 hours following radiation using anti-pDNA-PK (ser 2056) and fixed immediately in formalin following sectioning. For cell survival endpoint 8 Gy radiation was used and, 3 hours following radiation, spheroids were dissociated, counted and plated for colony forming endpoint. Data presented in the table compound potency as EC50 [μM].

Setting [3] is: Example 7, spheroid, cell line HCT115 [sic], 20% O2, read-out: EC50 (pDNA-PK inhibition, immunohistochemical endpoint).
The mark [4] stands for this setting: Example 8, spheroid, read-out: Cell line: HCT116 Immunohistochemical endpoint pDNA-PK inhibition EC50.
The mark [5] stands for this setting: Example 9 Study 2, 20% O2, read-out: Spheroid Cell line: HCT116 Immunohistochemical endpoint pDNA-PK inhibition EC50.

In the case of `Cc1cn([C@H]2CC[C@@H](Oc3nc(N4CCOCC4)cc4ncccc34)CC2)nc1C(F)(F)F` [Compound 17e, 4-(5-(((1s,4s)-4-(4-methyl-3-(trifluoromethyl)-1H-pyrazol-1-yl)cyclohexyl)oxy)-1,6-naphthyridin-7-yl)morpholine], the figures for the IC50 (on DNA-PK (Table 1); in assay [1] (Table 1)) were 1 to 10 nM and 100 to 1000 nM, respectively. Moreover, the EC50 in assay [2] (setting [3]) and in assay [2] (setting [4]) was 1000 to 10000 nM in each case.
As for `Cc1cnn([C@H]2CC[C@@H](Oc3nc(N4CCOCC4)cc4ncccc34)CC2)c1C(F)(F)F` [Compound 17f, 4-(5-(((1s,4s)-4-(4-methyl-5-(trifluoromethyl)-1H-pyrazol-1-yl)cyclohexyl)oxy)-1,6-naphthyridin-7-yl)morpholine], the IC50 on DNA-PK (Table 1) fell in the range of 1 to 10 nM; in assay [1] (Table 1), 10000 to 30000 nM. The EC50 in assay [2] (setting [3]) and in assay [2] (setting [4]) was 10000 to 100000 nM each time.
Consider `Cc1c(C(F)(F)F)cnn1[C@H]1CC[C@@H](Oc2nc(N3CCOCC3)cc3ncccc23)CC1` [Compound 17h, 4-(5-(((1s,4s)-4-(5-methyl-4-(trifluoromethyl)-1H-pyrazol-1-yl)cyclohexyl)oxy)-1,6-naphthyridin-7-yl)morpholine], for which the IC50 at DNA-PK (Table 1) was 1 to 10 nM; in assay [1] (Table 1), 1000 to 10000 nM. In addition, the concentration for a half-maximal effect (EC50) in assay [2] (setting [3]), in assay [2] (setting [4]) and in assay [2] (setting [5]) was 10000 to 100000 nM each time.
Consider `CCOCCOc1cnc(N[C@H]2CC[C@@H](Oc3nc(N4CCOCC4)cc4ncc(Br)cc34)CC2)nc1` [Compound 18b, N-((1s,4s)-4-((3-Bromo-7-morpholino-1,6-naphthyridin-5-yl)oxy)cyclohexyl)-5-(2-ethoxyethoxy)pyrimidin-2-amine], for which the IC50 at DNA-PK (Table 1) lay in the range of 1 to 10 nM; in assay [1] (Table 1), 10000 to 30000 nM. The EC50 in assay [2] (setting [3]), in assay [2] (setting [4]) and in assay [2] (setting [5]) was 1000 to 10000 nM in each case.
Regarding `Cn1ccc(N[C@H]2CC[C@@H](Oc3nc(N4CCOCC4)cc4ncccc34)CC2)n1` [Compound 30, 1-methyl-N-((1s,4s)-4-((7-morpholino-1,6-naphthyridin-5-yl)oxy)cyclohexyl)-1H-pyrazol-3-amine], the half-maximal inhibitory concentration (IC50) at DNA-PK (Table 1) was 1 to 10 nM; in assay [1] (Table 1), 100 to 1000 nM. The EC50 in assay [2] (setting [3]) and in assay [2] (setting [5]) was 10000 to 100000 nM throughout.
`CC(C)c1cnc(N[C@H]2CC[C@@H](Oc3nc(N4CCOCC4)cc4ncccc34)CC2)nc1` [Compound 33, 5-isopropyl-N-((1s,4s)-4-((7-morpholino-1,6-naphthyridin-5-yl)oxy)cyclohexyl)pyrimidin-2-amine]: the values for the IC50 (on DNA-PK (Table 1); in assay [1] (Table 1)) were 1 to 10 nM and below 100 nM, respectively. Besides, the EC50 in assay [2] (setting [3]) and in assay [2] (setting [5]) was 1000 to 10000 nM throughout.
Take `Cc1nccnc1N[C@H]1CC[C@@H](Oc2nc(N3CCOCC3)cc3ncccc23)CC1` [Compound 36, 3-methyl-N-((1s,4s)-4-((7-morpholino-1,6-naphthyridin-5-yl)oxy)cyclohexyl)pyrazin-2-amine]: the IC50 was 0.5 to 1 nM at DNA-PK (Table 1) and 100 to 1000 nM in assay [1] (Table 1). Moreover, the EC50 in assay [2] (setting [3]) and in assay [2] (setting [5]) was 1000 to 10000 nM each time.
As to `COc1nccnc1N[C@H]1CC[C@@H](Oc2nc(N3CCOCC3)cc3ncccc23)CC1` [Compound 39, 3-methoxy-N-((1s,4s)-4-((7-morpholino-1,6-naphthyridin-5-yl)oxy)cyclohexyl)pyrazin-2-amine], the IC50 at DNA-PK (Table 1) was below 0.5 nM; in assay [1] (Table 1) it was 100 to 1000 nM. The concentration for a half-maximal effect (EC50) in assay [2] (setting [3]) and in assay [2] (setting [5]) was 1000 to 10000 nM in each case.
For the compound `CN(C)C(=O)c1cnc(N[C@H]2CC[C@@H](Oc3nc(N4CCOCC4)cc4ncc(NS(C)(=O)=O)cc34)CC2)nc1` [LFA030, 2-[[4-[[3-(Methanesulfonamido)-7-morpholino-1,6-naphthyridin-5-yl]oxy]cyclohexyl]amino]-N,N-dimethyl-pyrimidine-5-carboxamide], the half-inhibitory concentration (IC50) on DNA-PK (Table 2) was below 0.5 nM; in assay [1] (Table 2), 100 to 1000 nM.
As to `Nc1cnc2cc(N3CCOCC3)nc(O[C@H]3CC[C@@H](Nc4ncccn4)CC3)c2c1` [LFA107, 7-morpholino-5-[4-(pyrimidin-2-ylamino)cyclohexoxy]-1,6-naphthyridin-3-amine], the IC50 on DNA-PK (Table 2) was below 0.5 nM; in assay [1] (Table 2), below 100 nM.

The term IC50 denotes the midpoint of a concentration-inhibition curve. Usually EC50 stands for the concentration needed to bring the measured effect to its halfway point.
